# Source: US20250026778A1 (TIUMBIO CO., LTD., priority 2021, published 2025)
# Target: T1, his-galectin-3 (Homo sapiens, UniProt P17931)
# T1 construct: purchased Abcam
# Assay: TR-FRET assay (in vitro galectin-3 binding inhibitory activity test)
# Details: Table 2; compound at 20 μM; 60 nM his-galectin-3, 15 nM biotin-ASF; read-out: % Inhibitory activity (at 20 μM)
# How it was run: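 Compound is premixed with his-galectin-3 (60 nM final), then biotin-ASF (15 nM), Tb anti-His antibody (2 nM) and streptavidin-d2 (20 nM) are added. After at least 3.5 hours at RT in HEPES/NaCl buffer with Tween 20 and BSA, TR-FRET is read at 615/665 nm. DMSO serves as the uninhibited control, ASF omission as background.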
# T1 sequence (P17931 whole entry): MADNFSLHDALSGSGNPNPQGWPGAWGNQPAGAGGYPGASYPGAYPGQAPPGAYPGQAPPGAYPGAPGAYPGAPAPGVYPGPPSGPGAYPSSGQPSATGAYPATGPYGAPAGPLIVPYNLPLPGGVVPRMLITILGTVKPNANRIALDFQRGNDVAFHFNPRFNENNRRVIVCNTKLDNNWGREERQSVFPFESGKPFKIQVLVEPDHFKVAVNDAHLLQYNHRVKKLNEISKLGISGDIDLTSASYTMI
row,Structure (SMILES),inhibition at 20 µM [%]
1,"O=C(N[C@@H]1CCO[C@]12O[C@H](CO)[C@H](O)[C@H](n1cc(-c3cc(F)c(F)c(F)c3)nn1)[C@H]2O)c1cccc2scnc12 [Compound A194, N-((4R,5S,7R,8R,9S,10R)-8,10-dihydroxy-7-(hydroxymethyl)-9-(4-(3,4,5-trifluorophenyl)-1H-1,2,3-triazol-1-yl)-1,6-dioxaspiro[4.5]decan-4-yl)benzo[d]thiazole-4-carboxamide]",50 to 75
2,"O=C(N[C@@H]1CCO[C@]12O[C@H](CO)[C@H](O)[C@H](n1cc(-c3cc(F)c(F)c(F)c3)nn1)[C@H]2O)c1ccc2c(Cl)cccc2c1 [Compound A195, 5-chloro-N-((4R,5S,7R,8R,9S,10R)-8,10-dihydroxy-7-(hydroxymethyl)-9-(4-(3,4,5-trifluorophenyl)-1H-1,2,3-triazol-1-yl)-1,6-dioxaspiro[4.5]decan-4-yl)-2-naphthamide]",25 to 50
3,"O=C(N[C@@H]1CCO[C@]12O[C@H](CO)[C@H](O)[C@H](n1cc(-c3cc(F)c(F)c(F)c3)nn1)[C@H]2O)c1cccc2sccc12 [Compound A198, N-((4R,5S,7R,8R,9S,10R)-8,10-dihydroxy-7-(hydroxymethyl)-9-(4-(3,4,5-trifluorophenyl)-1H-1,2,3-triazol-1-yl)-1,6-dioxaspiro[4.5]decan-4-yl)benzo[b]thiophene-4-carboxamide]",> 75
4,"O=C(N[C@@H]1CCO[C@]12O[C@H](CO)[C@H](O)[C@H](n1cc(-c3cc(F)c(F)c(F)c3)nn1)[C@H]2O)c1noc2cc(Cl)ccc12 [Compound A199, 6-chloro-N-((4R,5S,7R,8R,9S,10R)-8,10-dihydroxy-7-(hydroxymethyl)-9-(4-(3,4,5-trifluorophenyl)-1H-1,2,3-triazol-1-yl)-1,6-dioxaspiro[4.5]decan-4-yl)benzo[d]isoxazole-3-carboxamide]",25 to 50
5,"O=C(N[C@@H]1CCO[C@]12O[C@H](CO)[C@H](O)[C@H](n1cc(-c3cc(F)c(F)c(F)c3)nn1)[C@H]2O)c1cnc2sccn12 [Compound A200, N-((4R,5S,7R,8R,9S,10R)-8,10-dihydroxy-7-(hydroxymethyl)-9-(4-(3,4,5-trifluorophenyl)-1H-1,2,3-triazol-1-yl)-1,6-dioxaspiro[4.5]decan-4-yl)imidazo[2,1-b]thiazole-5-carboxamide]",50 to 75
6,"O=C(N[C@@H]1CCO[C@]12O[C@H](CO)[C@H](O)[C@H](n1cc(-c3cc(F)c(F)c(F)c3)nn1)[C@H]2O)c1cc2ccccc2cc1Cl [Compound A201, 3-chloro-N-((4R,5S,7R,8R,9S,10R)-8,10-dihydroxy-7-(hydroxymethyl)-9-(4-(3,4,5-trifluorophenyl)-1H-1,2,3-triazol-1-yl)-1,6-dioxaspiro[4.5]decan-4-yl)-2-naphthamide]",> 75
7,"OC[C@H]1O[C@]2(OCC[C@H]2/N=C\c2ccc3ccccc3c2O)[C@H](O)[C@@H](n2cc(-c3cc(F)c(F)c(F)c3)nn2)[C@H]1O [Compound A203, (4R,5S,7R,8R,9S,10R)-7-(hydroxymethyl)-4-((Z)-((1-hydroxynaphthalen-2-yl)methylene)amino)-9-(4-(3,4,5-trifluorophenyl)-1H-1,2,3-triazol-1-yl)-1,6-dioxaspiro[4.5]decane-8,10-diol]",25 to 50
8,"O=C(N[C@@H]1CCO[C@]12O[C@H](CO)[C@H](O)[C@H](n1cc(-c3cc(F)c(F)c(F)c3)nn1)[C@H]2O)c1ccnc2ccccc12 [Compound A207, N-((4R,5S,7R,8R,9S,10R)-8,10-dihydroxy-7-(hydroxymethyl)-9-(4-(3,4,5-trifluorophenyl)-1H-1,2,3-triazol-1-yl)-1,6-dioxaspiro[4.5]decan-4-yl)quinoline-4-carboxamide]",> 75
9,"O=C(N[C@@H]1CCO[C@]12O[C@H](CO)[C@H](O)[C@H](n1cc(-c3cc(F)c(F)c(F)c3)nn1)[C@H]2O)c1cccc2ncc(Br)cc12 [Compound A208, 3-bromo-N-((4R,5S,7R,8R,9S,10R)-8,10-dihydroxy-7-(hydroxymethyl)-9-(4-(3,4,5-trifluorophenyl)-1H-1,2,3-triazol-1-yl)-1,6-dioxaspiro[4.5]decan-4-yl)quinoline-5-carboxamide]",> 75
10,"O=C(N[C@@H]1CCO[C@]12O[C@H](CO)[C@H](O)[C@H](n1cc(-c3cc(F)c(F)c(F)c3)nn1)[C@H]2O)c1cccc2ncccc12 [Compound A212, N-((4R,5S,7R,8R,9S,10R)-8,10-dihydroxy-7-(hydroxymethyl)-9-(4-(3,4,5-trifluorophenyl)-1H-1,2,3-triazol-1-yl)-1,6-dioxaspiro[4.5]decan-4-yl)quinoline-5-carboxamide]",> 75

# Second part, the molecule after the results:
row,inhibition at 20 µM [%],Structure (SMILES)
1,25 to 50,"O=C(N[C@@H]1CCO[C@]12O[C@H](CO)[C@H](O)[C@H](n1cc(-c3cc(F)c(F)c(F)c3)nn1)[C@H]2O)c1ccc2c(Br)cccc2c1 [Compound A192, 5-bromo-N-((4R,5S,7R,8R,9S,10R)-8,10-dihydroxy-7-(hydroxymethyl)-9-(4-(3,4,5-trifluorophenyl)-1H-1,2,3-triazol-1-yl)-1,6-dioxaspiro[4.5]decan-4-yl)-2-naphthamide]"
2,50 to 75,"O=C(N[C@@H]1CCO[C@]12O[C@H](CO)[C@H](O)[C@H](n1cc(-c3cc(F)c(F)c(F)c3)nn1)[C@H]2O)c1ccc2ccccc2c1Br [Compound A193, 1-bromo-N-((4R,5S,7R,8R,9S,10R)-8,10-dihydroxy-7-(hydroxymethyl)-9-(4-(3,4,5-trifluorophenyl)-1H-1,2,3-triazol-1-yl)-1,6-dioxaspiro[4.5]decan-4-yl)-2-naphthamide]"
3,50 to 75,"O=C(N[C@@H]1CCO[C@]12O[C@H](CO)[C@H](O)[C@H](n1cc(-c3cc(F)c(F)c(F)c3)nn1)[C@H]2O)c1ccc2sccc2c1 [Compound A196, N-((4R,5S,7R,8R,9S,10R)-8,10-dihydroxy-7-(hydroxymethyl)-9-(4-(3,4,5-trifluorophenyl)-1H-1,2,3-triazol-1-yl)-1,6-dioxaspiro[4.5]decan-4-yl)benzo[b]thiophene-5-carboxamide]"
4,50 to 75,"O=C(N[C@@H]1CCO[C@]12O[C@H](CO)[C@H](O)[C@H](n1cc(-c3cc(F)c(F)c(F)c3)nn1)[C@H]2O)c1nsc2cc(Br)ccc12 [Compound A197, 6-bromo-N-((4R,5S,7R,8R,9S,10R)-8,10-dihydroxy-7-(hydroxymethyl)-9-(4-(3,4,5-trifluorophenyl)-1H-1,2,3-triazol-1-yl)-1,6-dioxaspiro[4.5]decan-4-yl)benzo[d]isothiazole-3-carboxamide]"
5,< 25,"OC[C@H]1O[C@]2(OCC[C@H]2/N=C\c2c(O)ccc3ccccc23)[C@H](O)[C@@H](n2cc(-c3cc(F)c(F)c(F)c3)nn2)[C@H]1O [Compound A202, (4R,5S,7R,8R,9S,10R)-7-(hydroxymethyl)-4-((Z)-((2-hydroxynaphthalen-1-yl)methylene)amino)-9-(4-(3,4,5-trifluorophenyl)-1H-1,2,3-triazol-1-yl)-1,6-dioxaspiro[4.5]decane-8,10-diol]"
6,> 75,"OC[C@H]1O[C@]2(OCC[C@H]2Nc2ccccc2)[C@H](O)[C@@H](n2cc(-c3cc(F)c(F)c(F)c3)nn2)[C@H]1O [Compound A206, (4R,5S,7R,8R,9S,10R)-7-(hydroxymethyl)-4-(phenylamino)-9-(4-(3,4,5-trifluorophenyl)-1H-1,2,3-triazol-1-yl)-1,6-dioxaspiro[4.5]decane-8,10-diol]"
7,> 75,"O=C(N[C@@H]1CCO[C@]12O[C@H](CO)[C@H](O)[C@H](n1cc(-c3cc(F)c(F)c(F)c3)nn1)[C@H]2O)c1ccnc2ccc(Br)cc12 [Compound A209, 6-bromo-N-((4R,5S,7R,8R,9S,10R)-8,10-dihydroxy-7-(hydroxymethyl)-9-(4-(3,4,5-trifluorophenyl)-1H-1,2,3-triazol-1-yl)-1,6-dioxaspiro[4.5]decan-4-yl)quinoline-4-carboxamide]"
8,> 75,"O=C(N[C@@H]1CCO[C@]12O[C@H](CO)[C@H](O)[C@H](n1cc(-c3cc(F)c(F)c(F)c3)nn1)[C@H]2OCc1nn[nH]n1)c1ccc(F)c2ccccc12 [Compound A210, N-((4R,5S,7R,8R,9S,10R)-10-((2H-tetrazol-5-yl)methoxy)-8-hydroxy-7-(hydroxymethyl)-9-(4-(3,4,5-trifluorophenyl)-1H-1,2,3-triazol-1-yl)-1,6-dioxaspiro[4.5]decan-4-yl)-4-fluoro-1-naphthamide]"
9,> 75,"O=C(N[C@@H]1CCO[C@]12O[C@H](CO)[C@H](O)[C@H](n1cc(-c3cc(F)c(F)c(F)c3)nn1)[C@H]2O)c1cccc2ccc(Br)cc12 [Compound A211, 7-bromo-N-((4R,5S,7R,8R,9S,10R)-8,10-dihydroxy-7-(hydroxymethyl)-9-(4-(3,4,5-trifluorophenyl)-1H-1,2,3-triazol-1-yl)-1,6-dioxaspiro[4.5]decan-4-yl)-1-naphthamide]"

# Same assay, conditions: Table 3, found values; compound at 20 μM; 60 nM his-galectin-3, 15 nM biotin-ASF; read-out: % Inhibitory activity (at 20 μM)
row,inhibition at 20 µM [%],Structure (SMILES)
1,63.3,"O=C(N[C@@H]1CCO[C@]12O[C@H](CO)[C@H](O)[C@H](n1cc(-c3cc(F)c(F)c(F)c3)nn1)[C@H]2O)c1cnc2sccn12 [Compound A200, N-((4R,5S,7R,8R,9S,10R)-8,10-dihydroxy-7-(hydroxymethyl)-9-(4-(3,4,5-trifluorophenyl)-1H-1,2,3-triazol-1-yl)-1,6-dioxaspiro[4.5]decan-4-yl)imidazo[2,1-b]thiazole-5-carboxamide]"
2,90.6,"O=C(N[C@@H]1CCO[C@]12O[C@H](CO)[C@H](O)[C@H](n1cc(-c3cc(F)c(F)c(F)c3)nn1)[C@H]2OCc1nn[nH]n1)c1ccc(F)c2ccccc12 [Compound A210, N-((4R,5S,7R,8R,9S,10R)-10-((2H-tetrazol-5-yl)methoxy)-8-hydroxy-7-(hydroxymethyl)-9-(4-(3,4,5-trifluorophenyl)-1H-1,2,3-triazol-1-yl)-1,6-dioxaspiro[4.5]decan-4-yl)-4-fluoro-1-naphthamide]"

# Same assay, conditions: read-out: % Inhibitory activity (at 20 μM), Table 2; compound at 20 μM; 60 nM his-galectin-3, 15 nM biotin-ASF
row,Structure (SMILES),inhibition at 20 µM [%]
1,"OC[C@H]1O[C@]2(OCC[C@H]2n2cc(-c3ccccc3Cl)nn2)[C@H](O)[C@@H](n2cc(-c3cc(F)c(F)c(F)c3)nn2)[C@H]1O [Compound A204, (4R,5S,7R,8R,9S,10R)-4-(4-(2-chlorophenyl)-1H-1,2,3-triazol-1-yl)-7-(hydroxymethyl)-9-(4-(3,4,5-trifluorophenyl)-1H-1,2,3-triazol-1-yl)-1,6-dioxaspiro[4.5]decane-8,10-diol]",< 25
2,"OC[C@H]1O[C@]2(OCC[C@H]2n2cc(-c3cccc(Cl)c3)nn2)[C@H](O)[C@@H](n2cc(-c3cc(F)c(F)c(F)c3)nn2)[C@H]1O [Compound A205, (4R,5S,7R,8R,9S,10R)-4-(4-(3-chlorophenyl)-1H-1,2,3-triazol-1-yl)-7-(hydroxymethyl)-9-(4-(3,4,5-trifluorophenyl)-1H-1,2,3-triazol-1-yl)-1,6-dioxaspiro[4.5]decane-8,10-diol]",< 25
